Patent US8802711B2, “TRPV1 antagonists” (AbbVie Inc., priority 2011, dated 2014)

What was measured:
[1] = molecular target: T1, human TRPV1 receptor (hTRPV1) (Homo sapiens (Human), UniProt Q8NER1); assay: Capsaicin activation assay (FLIPR intracellular Ca2+); format: cell-based; conditions: Table 1; inhibition of capsaicin-induced intracellular Ca2+ increase, HEK293 cells expressing human TRPV1; read-out: hTRPV1 cap IC50
Method: Dulbecco's modified Eagle medium (D-MEM) (with 4.5 mg/mL glucose) and fetal bovine serum were obtained from Hyclone Laboratories, Inc. (Logan, Utah). Dulbecco's phosphate-buffered saline (D-PBS) (with 1 mg/mL glucose and 3.6 mg/l Na pyruvate, without phenol red), L-glutamine, hygromycin B, and Lipofectamine® were obtained from Life Technologies (Grand Island, N.Y.). G418 sulfate was obtained from Calbiochem-Novabiochem Corp. (San Diego, Calif.). Capsaicin (8-methyl-N-vanillyl-6-nonenamide) was obtained from Sigma-Aldrich, Co. (St. Louis, Mo.). Fluo-4 AM (N-[4-[6-[(acetyloxy)methoxy]-2,7-difluoro-3-oxo-3H-xanthen-9-yl]-2-[2-[2-[bis[2-[(acetyloxy)methoxy]-2-oxyethyl]amino]-5-methyl phenoxy]ethoxy]phenyl]-N-[2-[(acetyloxy)methoxy]-2-oxyethyl]-glycine, (acetyloxy)methyl ester) was purchased from Molecular Probes (Eugene, Oreg.). […]
The functional activity of compounds at the TRPV1 receptor was determined by measurement of intracellular Ca^2+ levels ([Ca^2+]i) using the Fluorescence Imaging Plate Reader (FLIPR)^TETRA®. All compounds were tested over a 12-point one-third-log concentration range. Compound stocks, 10 mM, were prepared in DMSO, and diluted serially across a 384-well plate using a Bravo BenchCel workstation (Agilent Technologies, Santa Clara, Calif.). A stock concentration of capsaicin (10 mM) was made in DMSO, and diluted in D-PBS to a final concentration of 200 nM (4×). On the day prior to the experiment, recombinant HEK293 cells that stably express human TRPV1 were removed from tissue culture flasks and plated in growth medium into black-walled clear-bottom 384-well Biocoat™ poly-D-lysine assay plates (BD Biosciences, Bedford, Mass.) using a Multidrop® dispenser (ThermoScientific, Waltham, Mass.). On the day of the experiment, growth medium was removed, and the no-wash FLIPR® Calcium-4 dye (λEX=470-495 nm, λEM=515-575 nm; Molecular Devices, Sunnyvale, Calif.) was added to each well using the Multidrop® dispenser. Cells were incubated for 90-120 minutes in the dark at room temperature. Test compounds were added to the cells 3 minutes prior to the addition of 200 nM capsaicin (4×), and the final assay volume was 80 μL. Fluorescence readings were made at 1 to 5 second intervals over the course of the experimental run. The peak increase in relative fluorescence units (minus baseline) was calculated, and expressed as a percentage of the 50 nM capsaicin (control) response.

[2] = molecular target: T1, human TRPV1 receptor (hTRPV1); assay: Acid activation assay (pH 5.0, FLIPR intracellular Ca2+); format: cell-based; conditions: Table 1; 37.5 μM antagonist, percentage of the maximal pH 5.0-induced response remaining; read-out: hTRPV1 H+ (max % remain)
Method: Dulbecco's modified Eagle's medium (DMEM) with 4.5 mg/mL D-glucose, fetal bovine serum, L-glutamine, and 2-morpholinoethanesulfonic acid (MES) were purchased from Sigma-Aldrich Co. (St. Louis, Mo.). Dulbecco's phosphate-buffered saline (DPBS) with Ca^2+, Mg^2+, and 1 mg/mL D-glucose (pH 7.4), Geneticin®, 0.25% trypsin-1 mM EDTA, and penicillin-streptomycin were purchased from Invitrogen Corp. (Carlsbad, Calif.). The FLIPR® Calcium 4 assay kit was purchased from Molecular Devices (Sunnyvale, Calif.).
The cDNAs for the human TRPV1 receptor (hTRPV1) were isolated by reverse transcriptase-polymerase chain reaction (RT-PCR) from human small intestine poly A+RNA supplied by Clontech (Palo Alto, Calif.) using primers designed surrounding the initiation and termination codons identical to the published sequences (Hayes et al. Pain 2000, 88, 205-215). The resulting cDNA PCR products were subcloned into pCIneo mammalian expression vector (Promega) and fully sequenced using fluorescent dye-terminator reagents (Prism, Perkin-Elmer Applied Biosystems Division) and a Perkin-Elmer Applied Biosystems Model 373 DNA sequencer or Model 310 genetic analyzer. Expression plasmids encoding the hTRPV1 cDNA were transfected individually into 1321N1 human astrocytoma cells using Lipofectamine. Forty-eight hours after transfection, the neomycin-resistant cells were selected with growth medium containing 800 μg/mL Geneticin (Gibco BRL). Surviving individual colonies were isolated and screened for TRPV1 receptor activity. Cells expressing recombinant homomeric TRPV1 receptors were maintained at 37° C. in DMEM containing 4 mM L-glutamine, 300 μg/mL G418 (Cal-biochem) and 10% fetal bovine serum under a humidified 5% CO2 atmosphere.
The functional activity of compounds at the TRPV1 receptor was determined by measurement of intracellular Ca^2+ levels ([Ca^2+]i) using the Fluorescence Imaging Plate Reader (FLIPR)^TETRA®. All compounds were tested over a 12-point one-half-log concentration range. Compound stocks, 10 mM, were prepared in DMSO, and diluted serially across a 384-well plate using a Bravo BenchCel workstation (Agilent Technologies, Santa Clara, Calif.).
On the day of the experiment growth medium was removed, and the no-wash FLIPR® Calcium-4 dye (λEX=470-495 nm, λEM=515-575 nm) was added to each well using the Multidrop® dispenser. Cells were incubated for 90-120 minutes in the dark at 25° C. Test compounds were dissolved in DMSO, and plates were prepared using an Agilent Bravo workstation (Agilent Technologies Inc., Santa Clara, Calif.). Compounds were added to the cells 3 minutes prior to the addition of a pH 5.0 solution. Reagents were delivered at a rate of 40 μL/sec, and the final assay volume was 80 μL. Acidic pH solutions were prepared by titration of DPBS/MES with 1 N HCl. The intensity of the fluorescence was captured and digitally transferred to an interfaced PC.

T1 sequence (Q8NER1 whole entry): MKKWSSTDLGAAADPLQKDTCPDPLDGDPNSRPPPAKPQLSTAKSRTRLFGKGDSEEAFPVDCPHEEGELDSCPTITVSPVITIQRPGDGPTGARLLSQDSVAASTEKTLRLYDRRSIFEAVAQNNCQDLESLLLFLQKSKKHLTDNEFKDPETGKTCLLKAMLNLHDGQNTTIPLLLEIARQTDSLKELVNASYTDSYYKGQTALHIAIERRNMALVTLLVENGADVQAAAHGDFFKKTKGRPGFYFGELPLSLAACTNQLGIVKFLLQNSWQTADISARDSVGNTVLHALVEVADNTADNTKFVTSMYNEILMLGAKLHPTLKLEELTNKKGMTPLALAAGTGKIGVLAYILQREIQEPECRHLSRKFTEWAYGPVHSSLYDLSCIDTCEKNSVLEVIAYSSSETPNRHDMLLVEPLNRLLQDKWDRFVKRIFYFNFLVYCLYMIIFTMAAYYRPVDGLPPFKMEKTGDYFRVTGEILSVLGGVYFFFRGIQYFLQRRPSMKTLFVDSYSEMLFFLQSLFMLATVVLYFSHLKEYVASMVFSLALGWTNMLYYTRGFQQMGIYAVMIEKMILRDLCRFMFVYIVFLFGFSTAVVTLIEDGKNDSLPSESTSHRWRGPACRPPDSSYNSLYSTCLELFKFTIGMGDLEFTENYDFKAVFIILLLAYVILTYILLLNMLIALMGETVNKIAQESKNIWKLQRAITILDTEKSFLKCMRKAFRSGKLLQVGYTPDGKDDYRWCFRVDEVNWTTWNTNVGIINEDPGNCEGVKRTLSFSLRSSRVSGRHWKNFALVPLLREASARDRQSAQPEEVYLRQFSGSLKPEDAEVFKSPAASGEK

SMILES | IC50 [1] | remaining activity at 37.5 µM [2]
COCCN(C)C1Cc2ccc(NC(=O)N[C@@H]3CC[C@H](c4ccccc4)C3)cc2NC1=O (stereo partly drawn) [Example 144, 1-{3-[(2-methoxyethyl)(methyl)amino]-2-oxo-1,2,3,4-tetrahydroquinolin-7-yl}-3-[(1R,3S)-3-phenylcyclopentyl]urea] | > 37500 nM | 62%
O=C(Nc1cccc2c1C[C@H](O)C2)N[C@H]1CC[C@H](c2ccccc2)C1 [Example 8, 1-[(2R)-2-hydroxy-2,3-dihydro-1H-inden-4-yl]-3-[(1S,3S)-3-phenylcyclopentyl]urea] | 123 nM | 78%
O=C(Nc1cccc2[nH]ncc12)N[C@H]1CCC[C@@H](c2ccc(C(F)(F)F)cc2)C1 [Example 33, 1-(1H-indazol-4-yl)-3-{(1S,3R)-3-[4-(trifluoromethyl)phenyl]cyclohexyl}urea] | 8640 nM | 68%
CN1CCOc2ccc(NC(=O)N[C@@H]3CC[C@H](c4ccccc4)C3)cc21 [Example 145, 1-(4-methyl-3,4-dihydro-2H-1,4-benzoxazin-6-yl)-3-[(1R,3S)-3-phenylcyclopentyl]urea] | 614 nM | 91%
CN1C(=O)CCc2ccc(NC(=O)N[C@H]3CC[C@@H](c4cccc(F)c4)C3)cc21 [Example 108, 1-[(1S,3R)-3-(3-fluorophenyl)cyclopentyl]-3-(1-methyl-2-oxo-1,2,3,4-tetrahydroquinolin-7-yl)urea] | 804 nM | 88%
O=C(Nc1cccc2c1C[C@H](O)C2)N[C@H]1CC[C@@H](c2ccccc2)C1 [Example 22, 1-[(2R)-2-hydroxy-2,3-dihydro-1H-inden-4-yl]-3-[(1S,3R)-3-phenylcyclopentyl]urea] | 286 nM | 41%
O=C(Nc1cccc2[nH]ncc12)N[C@H]1C[C@@H](c2ccccc2)[C@H](O)[C@@H]1O [Example 53, 1-((1S,2R,3S,4S)-2,3-dihydroxy-4-phenylcyclopentyl)-3-(1H-indazol-4-yl)urea] | > 37500 nM | 84%
O=C(Nc1ccc2c(c1)NC(=O)C(N1CCCOCC1)C2)N[C@@H]1CC[C@H](c2ccccc2)C1 (stereo partly drawn) [Example 143, 1-[3-(1,4-oxazepan-4-yl)-2-oxo-1,2,3,4-tetrahydroquinolin-7-yl]-3-[(1R,3S)-3-phenylcyclopentyl]urea] | 145 nM | 24%
O=C1CCc2ccc(NC(=O)N[C@@H]3CC[C@@H](c4ccccc4)C3)cc2N1 [Example 19, 1-(2-oxo-1,2,3,4-tetrahydroquinolin-7-yl)-3-[(1R,3R)-3-phenylcyclopentyl]urea] | > 37500 nM | 81%
O=C(Nc1ccc2c(c1)NC(=O)N(CCO)C2)N[C@H]1CC[C@@H](c2ccccc2)C1 [Example 113, 1-[3-(2-hydroxyethyl)-2-oxo-1,2,3,4-tetrahydroquinazolin-7-yl]-3-[(1S,3R)-3-phenylcyclopentyl]urea] | 7700 nM | 50%
Cc1coc([C@@H]2CC[C@H](NC(=O)Nc3cccc4[nH]ncc34)C2)n1 (single isomer, unassigned) [Example 122, 1-(1H-indazol-4-yl)-3-[(1S*,3R*)-3-(4-methyl-1,3-oxazol-2-yl)cyclopentyl]urea] | 20500 nM | 68%
O=C(Nc1cccc2[nH]ccc12)N[C@@H]1CC[C@H](c2ccccc2)C1 [Example 137, 1-(1H-indol-4-yl)-3-[(1R,3S)-3-phenylcyclopentyl]urea] | 100 nM | 42%

These reach a lower IC50 [1]. Values come first.

IC50 [1] | remaining activity at 37.5 µM [2] | SMILES
4 nM | 2% | O=C(Nc1cccc2c1C[C@H](O)CC2)N[C@@H]1CC[C@H](c2ccccc2)C1 [Compound G, 1-[(7R)-7-hydroxy-5,6,7,8-tetrahydronaphthalen-1-yl]-3-[(1R,3S)-3-phenylcyclopentyl]urea, reference compound]
79 nM | 66% | O=C(Nc1cccc2c1C[C@H](O)C2)N[C@@H]1CC[C@@H](c2ccccc2F)C1 [Example 92, 1-[(1R,3R)-3-(2-fluorophenyl)cyclopentyl]-3-[(2R)-2-hydroxy-2,3-dihydro-1H-inden-4-yl]urea]
66 nM | 68% | O=C(Nc1cccc2[nH]ncc12)N[C@H]1CC[C@@H](C2CCCCC2)C1 [Example 49, 1-((1S,3R)-3-cyclohexylcyclopentyl)-3-(1H-indazol-4-yl)urea]
85 nM | 1% | C[C@H]1Oc2c(NC(=O)N[C@H]3CC[C@@H](c4ccccc4)C3)cccc2NC1=O [Example 24, 1-[(2R)-2-methyl-3-oxo-3,4-dihydro-2H-1,4-benzoxazin-8-yl]-3-[(1S,3R)-3-phenylcyclopentyl]urea]
2.3 nM | 66% | Cn1c(=O)ccc2c(NC(=O)N[C@@H]3CC[C@@H](c4ccccc4F)C3)cccc21 [Example 81, 1-[(1R,3R)-3-(2-fluorophenyl)cyclopentyl]-3-(1-methyl-2-oxo-1,2-dihydroquinolin-5-yl)urea]
8.9 nM | 21% | Cc1cc2c(NC(=O)N[C@H]3CC[C@@H](c4cccc(F)c4)C3)c(F)ccc2cn1 [Example 85, 1-(6-fluoro-3-methylisoquinolin-5-yl)-3-[(1S,3R)-3-(3-fluorophenyl)cyclopentyl]urea]
5 nM | 2% | O=C(Nc1cccc2c1C[C@@H](O)CC2)N[C@@H]1CC[C@H](c2ccccc2)C1 [Compound C, 1-[(7S)-7-hydroxy-5,6,7,8-tetrahydronaphthalen-1-yl]-3-[(1R,3S)-3-phenylcyclopentyl]urea, reference compound]
16 nM | 46% | CN1C(=O)CCc2c(NC(=O)N[C@@H]3CC[C@@H](c4ccccc4F)C3)cccc21 [Example 99, 1-[(1R,3R)-3-(2-fluorophenyl)cyclopentyl]-3-(1-methyl-2-oxo-1,2,3,4-tetrahydroquinolin-5-yl)urea]
10 nM | 5% | O=C(Nc1cccc2[nH]ncc12)N[C@H]1CC[C@H](c2ccccc2F)C1 [Example 62, 1-[(1S,3S)-3-(2-fluorophenyl)cyclopentyl]-3-(1H-indazol-4-yl)urea]
